According to patent US5912224A, “Methods and compositions for enhancing cellular response to TGF-β ligands” (priority 1997, dated 1999):

Legend:
[1] = test system: Mv1Lu cells; test: Transcriptional response assay (p3TP-lux luciferase reporter); assay type: cell-based, mink
Text: Two TGF-β responsive mink lung epithelial cell lines Mv1Lu and L17, the latter being a highly transfectable clone of R1B lacking the functional type I receptor of TGF-β, were used in a transcriptional response employing a DEAE-dextran method (Bassing, C. et al., Science 263:87-89 (1994); Wrana, J. L. et al., Nature 370:341-47 (1994)). Briefly, cells grown to 50% confluency in 6-well plates were transiently transfected with the transcriptional response reporter construct p3TP-lux alone or together with different constructs of the type I receptor. Sixteen to twenty hours after transfection, cells were treated with TGF-β in 0.2% serum medium for 24 to 28 hours. For testing the effect of FK506 derivative 15-O-desmethyl FK520, cells were treated with the drug beginning two hours prior to the addition of TGF-β. Cell lysates were made and luciferase activity was measured in a luminometer. Each assay was carried out in duplicate or triplicate.
To distinguish between these possibilities, both 15-O-desmethyl-FK520 and L685,818 were used to test the role of FKBP12 in the signaling events mediated by TGF-β, and yielded very similar results; here we report the results from using 15-O-desmethyl-FK520. […]

[2] = test system: Mv1Lu cells; test: Growth inhibition assay; assay type: cell-based, mink; conditions: for growth inhibition, macrolide alone: each alone, added to Mv1Lu cells
Description: Growth Inhibition Assay Mv1Lu cells were seeded in 12-well plate at 3×10^4 cells/well and incubated overnight. Cells were treated with 15-O-demethyl FK520 for 2 hours and with TGF-β for 36 to 40 hours in the presence of the drug. Cells were trypsinized, and cell numbers were determined in a Coulter counter.
To distinguish between these possibilities, both 15-O-desmethyl-FK520 and L685,818 were used to test the role of FKBP12 in the signaling events mediated by TGF-β, and yielded very similar results; here we report the results from using 15-O-desmethyl-FK520. In the absence of 15-O-desmethyl-FK520, TGF-β elicits two cellular responses when added into the mink lung epithelial cell line Mv1Lu: the growth inhibition response, which can be detected by a decrease in cell number, and the gene activation response, which can be measured by an increase in the luciferase activities resulting from the activation of a transfected luciferase reporter gene regulated by a Plasminogen Activator Inhibitor (PAI) promotor (Wrana, J. L. et al., Cell 71:1003-1014 (1992)). […] Therefore, FKBP12 binding to the TGF-β type I receptor is not necessary, but is inhibitory to the type I receptor mediated signaling, and release of FKBP12 is not sufficient for complete activation of the downstream signaling events in the absence of TGF-β.

[3] = biological target: FKBP12 (Homo sapiens, UniProt P62942); conditions: cited from earlier work
[4] = in vivo; cited from earlier work
[5] = test system: FKBP12 (T7 tagged) binding to TGF-β type I receptor (R4); test: R4/FKBP12 co-immunoprecipitation competition in transfected COS cells; assay type: cell-based; conditions: for block of R4/FKBP12 co-immunoprecipitation: 100 nM derivative, COS cells transfected with R4 and T7 tagged FKBP12
Description: For testing FKBP12 binding to ligand-free TGF-β type I receptor (either wild type or mutants) by co-immunoprecipitations, COS1 cells grown in P-100 dishes were transfected with 4 μg of T7 tagged FKBP12 in pCMV8 and 6 μg of R4 (or mutant R4) in pCMV6 using the DEAE-dextran method. In the case of using metabolic labeling to detect co-precipitation of FKBP12 and R4, 40-44 hours after transfection COS1 cells were incubated for 4 hours with 50 μCi/ml [^35 S]-methionine in methionine-free media and lysed in lysis buffer (20 mM Tris-HCl [pH 7.4], 150 mM NaCl, 0.5% Triton X-100, 1 mM EDTA) in the presence of a mixture of protease inhibitors. Anti-T7 monoclonal antibody (5 μl) was added into 200 μl of cell lysates, incubated at 4° C. for 2 hours, absorbed with protein A sepharose beads, and washed three times with wash buffer (20 mM Tris-HCl [pH 7.4], 150 mM NaCl, 0.1% Triton X-100, 1 mM EDTA). Proteins were eluted from the sepharose beads using 2× SDS-PAGE denaturing sample buffer, separated on 15% SDS-PAGE. The gel was treated with Autofluor (National Diagnostic), dried and subjected to autoradiography for 48 hours. In the case of using Western blot to detect co-precipitated T7 tagged FKBP12, cell lysates were immunoprecipitated with 10 μl of VPN antiserum, which recognizes a juxtamembrane region of the TGF-β type I receptor (Franzen, P. et al., Cell 75:681-692 (1993)). The immunoprecipitates were separated on 15% SDS-PAGE, electrotransferred onto nitrocellulose membrane, blotted using anti-T7 monoclonal antibody, and detected by ECL (Amersham).
For testing the effect of non-functional FK506 derivatives (L685,818 from Merck Laboratories and 15-O-desmethyl-FK520 from Sandoz) on FKBP12 binding to R4, 2 hours after transfection COS1 cells were treated with the derivatives for […] and then labeled for 4 hours with 50 μCi/ml [^35 S]-methionine in methionine-free media 40-44 hours after transfection. Cells were then lysed and immunoprecipitation was carried out as described above. […]

[6] = test system: Mullerian duct; test: Urogenital ridge organ culture assay (MIS-mediated Mullerian duct regression); design: species or system rat
Description: The organ culture assay was carried out as described previously (Donahoe, P. K. et al., J. Surg. Res. 23:141-148 (1977)). Briefly, urogenital ridges containing Wolffian and Mullerian ducts from 14.5 day female rat fetuses were maintained in CMRL media with 10% fetal calf serum, 100 units/ml penicillin, and 100 μg/ml streptomycin. To test the effect of the non-functional derivatives of FK506 (L685,818 or 15-O-desmethyl FK520) on Mullerian duct regression, the specimens were treated with the indicated doses of MIS in the presence or absence of the non-functional derivatives of FK506 and incubated at 37° C. in 5% CO2 and 95% air. After 72 hours, the specimens were fixed in formalin, dehydrated in an alcohol series, cleared in xylene, embedded in paraffin, cut in serial cross sections, stained with hematoxylin and eosin and graded for regression of the Mullerian duct as described (Donahoe, P. K. et al., J. Surg. Res. 23:141-148 (1977)).
Since FKBP12 binds to all known type I receptors, its inhibitory activity should therefore also be detected in the signaling events mediated by other TGF-β family members. Mullerian Inhibiting Substance (MIS) is a unique member of the TGF-β family known to be responsible for regression of the Mullerian duct in fetal males through an active apoptotic process (Jost, A., Arch. Anat. Micro. Morph. Exp. 36:271-315 (1947); Price, J. M. et al., Am. J. Anat. 149:353-376 (1977); Trelstad, R. L. et al., Devl. Bio. 92:27-40 (1982)). The activity of MIS in the regression of the Mullerian ducts can be measured directly in an organ culture assay (Donahoe, P. K. et al., J. Surg. Res. 23:141-148 (1977)). In this assay, urogenital ridges containing both the Wolffian duct and the Mullerian duct are isolated from fourteen and a half day female fetuses. […] When 1 μg MIS was added into the organ culture, grade 1.5 regression was observed, which histologically corresponds to a condensation of the mesenchymal cells surrounding a smaller and irregularly shaped Mullerian duct (FIG. 5, A, top panel). […] We further tested the effect of 1 μM 15-O-desmethyl-FK520 on the regression activities of different doses of MIS (FIG. 5, B).

[7] = test system: FKBP12 mutant D37G (mFKBP12); conditions: point mutation within the macrolide binding site; cited from earlier work
[8] = biological target: T1, FKBP12 binding to R4C (cytoplasmic domain of TGF-β type I receptor) (Rattus norvegicus, UniProt Q62658); conditions: excess macrolide, yeast cells; cited from earlier work
T1 construct: host or cells: yeast (two-hybrid)

[9] = biological target: FKBP12 mutant (G89P, 190K) (Homo sapiens, UniProt P62942, G90P/I91K); conditions: mutations within the 80s loop; cited from earlier work
[10] = macrolide up to 1 μM together with TGF-β 15 pM

FKBP12, sequence (P62942 whole entry): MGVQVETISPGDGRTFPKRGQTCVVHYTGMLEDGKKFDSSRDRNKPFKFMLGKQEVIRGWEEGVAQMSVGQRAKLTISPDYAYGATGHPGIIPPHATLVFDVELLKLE
FKBP12 mutant (G89P, 190K), sequence (P62942 2-108 G90P/I91K limits assumed): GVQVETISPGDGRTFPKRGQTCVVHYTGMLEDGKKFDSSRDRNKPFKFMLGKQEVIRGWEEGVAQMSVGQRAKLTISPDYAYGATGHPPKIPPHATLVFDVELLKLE
T1 sequence (Q62658 whole entry, the tested form may be a part): as the sequence (P62942 whole entry) above, with P10S, M50T, T76I counted along it

Structure (SMILES)	gene activation response, macrolide alone ([1]; 1 μM alone, no TGF-β)	TGF-β gene activation response (luciferase activity) [1, 10]	growth inhibition response, macrolide alone ([2]; 1 μM alone, no TGF-β)	TGF-β growth inhibition response (decrease in cell number) [2, 10]	affinity for FKBP12 [3]	toxicity in animal models [4]	block of R4/FKBP12 co-immunoprecipitation [5]	Mullerian duct regression ([6]; 1 μM macrolide alone, no MIS)	Mullerian duct regression grade (0 no regression to 5 complete regression) ([6]; 1 μM macrolide together with 1 μg MIS) [grade]	regression activity of 0.1 μg MIS in presence of macrolide ([6]; 1 μM macrolide with 0.1 μg MIS, compared with 1 μg MIS alone)	binding to FKBP12 D37G [7]	growth inhibition, macrolide alone [2]	competition for binding of R4C to FKBP12 [8]	binding to FKBP12 (G89P, 190K) [9]	block of R4 interaction with FKBP12 ([5]; 50 nM, COS cells, FIG. 4A lane 3)	Mullerian duct regression grade ([6]; 500 nM macrolide alone) [Grade]	Mullerian duct regression ([6]; 500 nM macrolide together with 2 μg MIS)
CC[C@@H]1/C=C(\C)C[C@H](C)C[C@H](O)[C@H]2O[C@@](O)(C(=O)C(=O)N3CCCC[C@H]3C(=O)O[C@H](/C(C)=C/[C@@H]3CC[C@@H](O)[C@H](OC)C3)[C@H](C)[C@@H](O)CC1=O)[C@H](C)C[C@@H]2OC [15-O-desmethyl-FK520]	Neither of the responses were detected	greatly enhanced	Neither of the responses were detected	greatly enhanced	binds with high affinity	do not induce toxicity	able to block R4/FKBP12 co-immunoprecipitation	no regression activity was detected	5	more biological activity than 1 μg MIS alone	–	–	–	–	–	–	–
C=CC[C@@H]1/C=C(\C)C[C@H](C)C[C@H](OC)[C@H]2O[C@@](O)(C(=O)C(=O)N3CCCC[C@H]3C(=O)O[C@H](/C(C)=C/[C@@H]3CC[C@@H](O)[C@H](OC)C3)[C@H](C)[C@@H](O)CC1=O)[C@H](C)C[C@@H]2OC [FK506]	–	–	–	–	bind strongly	–	–	–	–	–	abolishes FKBP12 binding	exhibited growth inhibition activities	could partially compete	without affecting	–	–	–
CC[C@@H]1/C=C(\C)C(O)[C@H](C)C[C@H](OC)[C@H]2O[C@@](O)(C(=O)C(=O)N3CCCC[C@H]3C(=O)O[C@H](/C(C)=C/[C@@H]3CC[C@@H](O)[C@H](OC)C3)[C@H](C)[C@@H](O)CC1=O)[C@H](C)C[C@@H]2OC (stereo partly drawn) [L685,818]	–	–	–	–	binds with high affinity	do not induce toxicity	able to block R4/FKBP12 co-immunoprecipitation	–	–	–	–	–	–	–	block R4 interaction with FKBP12	1	complete regression
CO[C@H]1C[C@@H]2CC[C@@H](C)[C@@](O)(O2)C(=O)C(=O)N2CCCC[C@H]2C(=O)O[C@H]([C@H](C)C[C@@H]2CC[C@@H](O)[C@H](OC)C2)CC(=O)[C@H](C)/C=C(\C)[C@@H](O)[C@@H](OC)C(=O)[C@H](C)C[C@H](C)/C=C/C=C/C=C/1C [rapamycin]	–	–	–	–	bind strongly	–	–	–	–	–	abolishes FKBP12 binding	exhibited growth inhibition activities	–	–	–	–	–
